From ChEMBL document CHEMBL3745612, “Synthesis and biological evaluation of thiophene and benzo[b]thiophene analogs of combretastatin A-4 and isocombretastatin A-4: A comparison between the linkage positions of the 3,4,5-trimethoxystyrene unit” (Bioorg Med Chem Lett, 2016) come the findings set out here.

The target of experiment [1] is Tubulin. As to the kind of experiment: Inhibition of Tubulin polymerization in human HeLa cells assessed as decrease in dynamic tyrosinated microtubules after 2 hrs by microplate reader analysis. It is filed as cell-based.
Experiment [2] can be described thus: Inhibition of sheep brain tubulin polymerization incubated at 37 degC for 10 mins and 0 degC for 5 mins by turbidimetry. Set-up: species or system Ovis aries.
The test system of experiment [3] is MES-SA. As to the kind of experiment: Antiproliferative activity against human MES-SA cells after 72 hrs by resazurin assay. It is filed as functional, cell-based. (Resazurin is reduced to fluorescent resorufin, in cell work by metabolically active cells.)
The nature of experiment [4]: Antiproliferative activity against human IC8 cells after 72 hrs by MTT assay. It is filed as functional, cell-based. Particulars: IC8, 72 h. (Tetrazolium assays rely on reduction of a dye to a coloured formazan, in cell work by metabolically active cells.)

By EC50 is commonly meant the concentration needed to bring the measured effect to its halfway point. Regarding `COc1cc(C(=O)c2cc3ccccc3s2)cc(OC)c1OC`, the EC50 in experiment [1] is greater than 10000 nM. The same measure, in the same setting: under `COc1cc(/C=C\c2ccsc2)cc(OC)c1OC` stands greater than 10000 nM. On to `COc1cc(/C=C/c2cc3ccccc3s2)cc(OC)c1OC`, for which, in experiment [1], the EC50 was 3180 nM. What is called IC50 is the concentration at which inhibition is half-maximal. Low readings indicate inhibition by little substance, high ones a need for much substance. With `COc1cc(/C=C\c2cc3ccccc3s2)cc(OC)c1OC`, the concentration for a half-maximal effect (EC50) in experiment [2] was determined as 80 nM; in experiment [1], 2600 nM. Moreover, the IC50 in experiment [3] was determined as 13 nM; in experiment [4] it was 17 nM. Consider `C=C(c1cc(OC)c(OC)c(OC)c1)c1csc2ccccc12`, for which the concentration giving a half-maximal response (EC50) in experiment [1] was determined as 3900 nM.

`COc1cc(/C=C\c2cccs2)cc(OC)c1OC`: the concentration for a half-maximal effect (EC50) in experiment [1] was greater than 10000 nM. Same read-out and setting: then `C=C(c1cc(OC)c(OC)c(OC)c1)c1cc2ccccc2o1`, with greater than 10000 nM.

Regarding `C=C(c1cc(OC)c(OC)c(OC)c1)c1cc2ccccc2s1`, the 50% inhibitory concentration (IC50) in experiment [3] was determined as 95 nM; in experiment [4] it was 101 nM. In addition, the concentration for a half-maximal effect (EC50) in experiment [1] is 321 nM.

Turning to `C=C(c1ccsc1)c1cc(OC)c(OC)c(OC)c1`, the concentration giving a half-maximal response (EC50) in experiment [1] is greater than 10000 nM.

`COc1cc(/C=C\c2csc3ccccc23)cc(OC)c1OC`: the IC50 in experiment [3] was determined as 191 nM; in experiment [4], 288 nM. Moreover, in experiment [1], the EC50 was 2430 nM.

`COc1csc(/C=C\c2cc(OC)c(OC)c(OC)c2)c1`: the values for the IC50 in experiment [3] and in experiment [4] were 25 nM and 27 nM, respectively. Also, the EC50 in experiment [1] amounted to 81 nM.

Consider `COc1cc(C(=O)c2csc3ccccc23)cc(OC)c1OC`, for which the 50% effective concentration (EC50) in experiment [1] was greater than 10000 nM. Still for that read-out and setting: under `C=C(c1cc(OC)c(OC)c(OC)c1)c1cccs1` stands greater than 10000 nM. Regarding `COc1ccc(/C=C\c2cc(OC)c(OC)c(OC)c2)s1`, the IC50 in experiment [3] was found to be 53 nM; in experiment [4], 76 nM. In experiment [1], the concentration giving a half-maximal response (EC50) is 1560 nM. Regarding `COc1cc2c(c(OC)c1OC)-c1ccc(OC)c(=O)cc1[C@@H](NC(C)=O)CC2` [COLCHICINE], the half-maximal inhibitory concentration (IC50) in experiment [3] and in experiment [4] was 15 nM in each case. As for `COc1ccc(/C=C\c2cc(OC)c(OC)c(OC)c2)cc1O` [COMBRETASTATIN A4], the IC50 in experiment [3] amounted to 3 nM; in experiment [4] it was 4 nM.
